Earlier results, collected in patent US7674912B2, “Pro-drugs of N-thiazol-2-yl-benzamide derivatives” (priority 2005, dated 2010).
Where two headings read alike, the source gives them in different places.

Tests used:
[1] = tested on: non-human primates treated with MPTP
mice = settings: for total immobility time: mouse tail suspension test
[2] = tested on: MPTP treated mice and 6-OHDA-lesioned rats
[3] = tested on: unilateral 6-OHDA (6-hydroxydopamine) lesioned mice and rats; settings: elicited by a subthreshold dose of levodopa, unilateral 6-OHDA lesioned mice and rats
[4] = mice previously screened for having high immobility time

What does the source list for `CCn1c(=O)c2c(nc(/C=C/c3ccc(OC)c(OC)c3)n2C)n(CC)c1=O` [KW-6002, 8-[(1E)-2-(3,4-dimethoxyphenyl)ethenyl]-1,3-diethyl-3,7-dihydro-7-methyl-1H-purine-2,6-dione]?
dyskinesias ([1]; in vivo): without causing dyskinesias; motor impairment induced by MPTP ([1]; non-human primates): significantly improves motor impairment; total immobility time (mice): reduced the total immobility time; functional loss of dopaminergic nerve terminals in the striatum [2]: prevented functional loss of dopaminergic nerve terminals in the striatum; gliosis induced around degenerating neurons [2]: prevented gliosis; contralateral rotations [3]: enhance contralateral rotations

With `Nc1nc2c(cnn2CCc2ccccc2)c2nc(-c3ccco3)nn12` [SCH58261, 2-(2-furanyl)-7-(2-phenylethyl)-7H-pyrazolo[4,3-e][1,2,4]triazolo[1,5-c]pyrimidin-5-amine] as the molecule, how does the immobility (mice; [4]) read?
Its immobility is “reduce immobility”.

What about the immobility (mice; mice selectively bred for their helplessness) of the same molecule?
Its immobility is “reduced immobility”.

And the total immobility time (mice)?
Its total immobility time is “reduced the total immobility time”.

What about the contralateral rotations [3] of the same molecule?
The contralateral rotations was “enhance contralateral rotations”.

With `Nc1nc(NCCc2ccc(O)cc2)nc2nc(-c3ccco3)nn12` [ZM241385, 4-(2-[7-amino-2-(2-furyl)[1,2,4]triazolo[2,3-a][1,3,5]triazin-5-ylamino]-ethyl)phenol] as the molecule, how does the immobility (mice; [4]) read?
The immobility was “reduce immobility”.
